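Assay format: 96-well plates, 48-hour exposure. At the GI50, growth is halved.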 Activity calls are given as the source filed them. Rule as the data show it: active = GI50 up to about 1.1 µM and inactive = higher.
Assays:
Assay in all cases: NCI anticancer screen, dose series, 48 h
[1] = tested on: IGROV-1
[2] = tested on: HOP-62
[3] = tested on: SN12C
[4] = tested on: LOX IMVI
[5] = tested on: SNB-75
[6] = tested on: RXF 393
[7] = tested on: BT-549
[8] = tested on: COLO 205
[9] = tested on: CAKI-1
[10] = tested on: UACC-257
[11] = tested on: T47D
[12] = tested on: OVCAR-5
[13] = tested on: KM12
[14] = tested on: U-251
[15] = tested on: Hs-578T
[16] = tested on: MDA-MB-231
[17] = tested on: MOLT-4
[18] = tested on: A549
[19] = tested on: OVCAR-3
[20] = tested on: DU-145
[21] = tested on: NCI-H460
[22] = tested on: HCT-15
[23] = tested on: NCI/ADR-RES
[24] = tested on: HCT-116
[25] = tested on: SK-OV-3
[26] = tested on: SK-MEL-28
[27] = tested on: HOP-92
[28] = tested on: SK-MEL-2
[29] = tested on: SF-268
[30] = tested on: CCRF-CEM
[31] = tested on: EKVX
[32] = tested on: SR
[33] = tested on: OVCAR-4
[34] = tested on: M14
[35] = tested on: NCI-H522
[36] = tested on: TK-10
[37] = tested on: A498
[38] = tested on: NCI-H226
[39] = tested on: OVCAR-8
[40] = tested on: HCC 2998
[41] = tested on: RPMI-8226
[42] = tested on: UO-31
[43] = tested on: ACHN
[44] = tested on: SF-539
[45] = tested on: HL-60
[46] = tested on: K562
[47] = tested on: PC-3
[48] = tested on: UACC-62
[49] = tested on: NCI-H23
[50] = tested on: MDA-MB-435
[51] = tested on: Malme-3M
[52] = tested on: SW-620
[53] = tested on: HT-29
[54] = tested on: SK-MEL-5
[55] = tested on: 786-0
[56] = tested on: SNB-19
[57] = tested on: SF-295
[58] = tested on: MCF7

In the case of `O=[N+]([O-])C(=C/C1CCCCC1)/C(=C\C1CCCCC1)[N+](=O)[O-]`, the GI50 [1] is reported as 5.27 µM (inactive), the GI50 [2] is reported as 3.71 µM (inactive) and the GI50 [3] is reported as 3.24 µM (inactive). For the same compound, the GI50 [4] was 2.12 µM (inactive), the GI50 [5] was 14.1 µM (inactive) and the GI50 [6] was 1.49 µM (inactive). For the same compound, the GI50 [7] was 5.42 µM (inactive), the GI50 [8] was 3.21 µM (inactive) and the GI50 [9] was 3.85 µM (inactive). The GI50 [10] was 8.63 µM (inactive), the GI50 [11] was 9.73 µM (inactive) and the GI50 [12] was 11.7 µM (inactive). The GI50 [13] was 11.1 µM (inactive), the GI50 [14] was 3.73 µM (inactive) and the GI50 [15] was 2.84 µM (inactive). For the same compound, the GI50 [16] was 2.73 µM (inactive), the GI50 [17] was 1.56 µM (inactive) and the GI50 [18] was 18.6 µM (inactive). The GI50 [19] was 9.23 µM (inactive), the GI50 [20] was 13.3 µM (inactive) and the GI50 [21] was 5.16 µM (inactive). The GI50 [22] was 1.85 µM, the GI50 [23] was 2.47 µM (inactive) and the GI50 [24] was 6.43 µM (inactive). For the same compound, the GI50 [25] was 21.7 µM (inactive), the GI50 [26] was 5.06 µM (inactive) and the GI50 [27] was 7.05 µM (inactive). The GI50 [28] was 16.3 µM (inactive), the GI50 [29] was 3.27 µM (inactive) and the GI50 [30] was 2.62 µM (inactive). The GI50 [31] was 9.4 µM (inactive), the GI50 [32] was 1.8 µM (inactive) and the GI50 [33] was 18.9 µM (inactive). For the same compound, the GI50 [34] was 4.05 µM (inactive), the GI50 [35] was 1.8 µM (inactive) and the GI50 [36] was 6.27 µM (inactive). For the same compound, the GI50 [37] was 15.3 µM (inactive), the GI50 [38] was 7.28 µM (inactive) and the GI50 [39] was 3.3 µM (inactive). For the same compound, the GI50 [40] was 20.2 µM (inactive), the GI50 [41] was 0.316 µM (active) and the GI50 [42] was 7.87 µM (inactive). The GI50 [43] was 3.5 µM (inactive), the GI50 [44] was 2.18 µM (inactive) and the GI50 [45] was 2.09 µM (inactive). The GI50 [46] was 4.49 µM (inactive), the GI50 [47] was 6.32 µM (inactive) and the GI50 [48] was 5.7 µM (inactive). The GI50 [49] was 2.99 µM (inactive), the GI50 [50] was 4.56 µM (inactive) and the GI50 [51] was 2.2 µM (inactive). For the same compound, the GI50 [52] was 3.35 µM (inactive), the GI50 [53] was 5.48 µM (inactive) and the GI50 [54] was 7.83 µM (inactive). For the same compound, the GI50 [55] was 1.84 µM (inactive), the GI50 [56] was 18.4 µM (inactive) and the GI50 [57] was 16.3 µM (inactive). The GI50 [58] was 5.3 µM (inactive).

From ChEMBL document CHEMBL1201862, “PubChem BioAssay data set” (2004)
